Counter-ions that a name gives are not always drawn. Like-named read-outs stand apart in the source and are kept apart here. Where a SMILES comes first, the peptide text is derived from it. Bridges are numbered along the chain shown (N, C = ends).
Assays:
[1] = target: T1, SARS-CoV-2 PLpro (nsp3 1564–1878) (Severe acute respiratory syndrome coronavirus 2, UniProt P0DTD1); experiment: biochemical; design: FRET-quenched peptide (Pro3) cleavage by PLpro, 10 min pre-incubation, slope over 20 min, normalised to no-compound control; conditions: low concentration screen, read-out: % of control remaining
[2] = target: T1, SARS-CoV-2 PLpro (nsp3 1564–1878); experiment: biochemical; design: FRET-quenched peptide (Pro3) cleavage by PLpro, 10 min pre-incubation, slope over 20 min, normalised to no-compound control; conditions: high concentration screen, read-out: % of control remaining

CC(=O)Nc1ccc(NC(=S)NC(=O)c2ccc(C(C)(C)C)cc2)cc1 [Tenovin-1]
remaining activity at 1.25 µM ([1]; Well no.=4784): 95.1% | remaining activity at 1.25 µM ([1]; Well no.=7160): 98.9% | remaining activity at 3.75 µM ([2]; Well no.=4784): 96.5%

CC(C)(C)c1ccc(C(=O)NC(=S)Nc2ccc(N)cc2)cc1 [Tenovin-3]
remaining activity at 1.25 µM ([1]; Well no.=7072): 102% | remaining activity at 3.75 µM ([2]; Well no.=7072): 97.4%

CN(C)CCCCC(=O)Nc1ccc(NC(=S)NC(=O)c2ccc(C(C)(C)C)cc2)cc1 [Tenovin-6]
remaining activity at 1.25 µM ([1]; Well no.=6724): 93.8% | remaining activity at 3.75 µM ([2]; Well no.=6724): 92%

CN1C(C(=O)Nc2ccccn2)=C(O)c2sccc2S1(=O)=O [Tenoxicam]
remaining activity at 1.25 µM ([1]; Well no.=2299): 98.3% | remaining activity at 3.75 µM ([2]; Well no.=2299): 101%

COc1cc2nc(N3CCN(C(=O)C4CCCO4)CC3)nc(N)c2cc1OC (stereo not drawn) [Terazosin (hydrochloride dihydrate)]
remaining activity at 1.25 µM ([1]; Well no.=7519): 98.6% | remaining activity at 3.75 µM ([2]; Well no.=7519): 84.5%

COc1cc2nc(N3CCN(C(=O)C4CCCO4)CC3)nc(N)c2cc1OC (stereo not drawn) [Terazosin hydrochloride]
remaining activity at 1.25 µM ([1]; Well no.=1241): 98.7% | remaining activity at 3.75 µM ([2]; Well no.=1241): 92.5%

COc1cc2nc(N3CCN(C(=O)C4CCCO4)CC3)nc(N)c2cc1OC (stereo not drawn) [Terazosin]
remaining activity at 1.25 µM ([1]; Well no.=2301): 90.8% | remaining activity at 3.75 µM ([2]; Well no.=2301): 89.8%

CN(C/C=C/C#CC(C)(C)C)Cc1cccc2ccccc12 [Terbinafine]
remaining activity at 1.25 µM ([1]; Well no.=1580): 95% | remaining activity at 3.75 µM ([2]; Well no.=1580): 97.8%

CC(C)(C)NCC(O)c1cc(O)cc(O)c1 (stereo not drawn) [Terbutaline (sulfate)]
remaining activity at 1.25 µM ([1]; Well no.=6709): 106% | remaining activity at 3.75 µM ([2]; Well no.=6709): 106%

CC(C)(C)NCC(O)c1cc(O)cc(O)c1 (stereo not drawn) [Terbutaline hemisulfate]
remaining activity at 1.25 µM ([1]; Well no.=1189): 98.5% | remaining activity at 3.75 µM ([2]; Well no.=1189): 100%

O=C(O)c1ccc(C(=O)O)cc1 [Terephthalic acid]
remaining activity at 1.25 µM ([1]; Well no.=7501): 106% | remaining activity at 3.75 µM ([2]; Well no.=7501): 103%

CC(C)(C)c1ccc(C(O)CCCN2CCC(C(O)(c3ccccc3)c3ccccc3)CC2)cc1 (stereo not drawn) [Terfenadine]
remaining activity at 1.25 µM ([1]; Well no.=1232): 100% | remaining activity at 1.25 µM ([1]; Well no.=1742): 97.7% | remaining activity at 1.25 µM ([1]; Well no.=6598): 103% | remaining activity at 3.75 µM ([2]; Well no.=1232): 102% | remaining activity at 3.75 µM ([2]; Well no.=1742): 98.6% | remaining activity at 3.75 µM ([2]; Well no.=6598): 104%

NCCCC[C@H](NC(=O)[C@@H]1CCCN1C(=O)[C@@H]1CSSC[C@H](NC(=O)CNC(=O)CNC(=O)CN)C(=O)N[C@@H](Cc2ccc(O)cc2)C(=O)N[C@@H](Cc2ccccc2)C(=O)N[C@@H](CCC(N)=O)C(=O)N[C@@H](CC(N)=O)C(=O)N1)C(=O)NCC(N)=O [Terlipressin] (H-GGGCYFQNCPKG-NH2; disulfide 4-9)
remaining activity at 1.25 µM ([1]; Well no.=8103): 106% | remaining activity at 3.75 µM ([2]; Well no.=8103): 104%

CC(CC(c1ccccc1)c1ccccc1)NC(C)(C)C (stereo not drawn) [Terodiline hydrochloride]
remaining activity at 1.25 µM ([1]; Well no.=5438): 94.4% | remaining activity at 3.75 µM ([2]; Well no.=5438): 99.3%

Cc1ccc2c(c1CCC(=O)O)CC[C@@H](NS(=O)(=O)c1ccc(Cl)cc1)C2 [Terutroban]
remaining activity at 1.25 µM ([1]; Well no.=7149): 93.3% | remaining activity at 3.75 µM ([2]; Well no.=7149): 94.2%

COc1cc2c(cc1OC)[C@H]1CC(=O)[C@H](CC(C)C)CN1CC2 [Tetrabenazine]
remaining activity at 1.25 µM ([1]; Well no.=7492): 94.6% | remaining activity at 3.75 µM ([2]; Well no.=7492): 94.7%

CCCCNc1ccc(C(=O)OCCN(C)C)cc1 [Tetracaine hydrochloride]
remaining activity at 1.25 µM ([1]; Well no.=1228): 97.1% | remaining activity at 3.75 µM ([2]; Well no.=1228): 97.5%

CCCCCCCCCCCCCCCCCCCCCCCC(=O)O [Tetracosanoic acid]
remaining activity at 1.25 µM ([1]; Well no.=4502): 92.1% | remaining activity at 3.75 µM ([2]; Well no.=4502): 94.2%

CN(C)[C@@H]1C(O)=C(C(N)=O)C(=O)[C@@]2(O)C(O)=C3C(=O)c4c(O)cccc4[C@@](C)(O)[C@H]3C[C@@H]12 [Tetracycline]
remaining activity at 1.25 µM ([1]; Well no.=1948): 95.4% | remaining activity at 3.75 µM ([2]; Well no.=1948): 93.7%

CCCCCCCCCCCCCC(=O)O [Tetradecanoic acid]
remaining activity at 1.25 µM ([1]; Well no.=4266): 102% | remaining activity at 3.75 µM ([2]; Well no.=4266): 95.8%

CC[N+](CC)(CC)CC [Tetraethylammonium chloride]
remaining activity at 1.25 µM ([1]; Well no.=1475): 93.2% | remaining activity at 3.75 µM ([2]; Well no.=1475): 89%

COc1ccc2c(c1OC)CN1CCc3cc4c(cc3C1C2)OCO4 (stereo not drawn) [Tetrahydroberberine]
remaining activity at 1.25 µM ([1]; Well no.=6656): 97.9% | remaining activity at 3.75 µM ([2]; Well no.=6656): 99.7%

C[C@H](O)[C@H](O)[C@H]1CNc2nc(N)[nH]c(=O)c2N1 [Tetrahydrobiopterin]
remaining activity at 1.25 µM ([1]; Well no.=6159): 108% | remaining activity at 3.75 µM ([2]; Well no.=6159): 109%

COc1cc(CCC(=O)CC(=O)CCc2ccc(O)c(OC)c2)ccc1O [Tetrahydrocurcumin]
remaining activity at 1.25 µM ([1]; Well no.=6199): 104% | remaining activity at 3.75 µM ([2]; Well no.=6199): 107%

COc1ccc(CC2NCCc3cc(OC)c(OC)cc32)cc1OC (stereo not drawn) [Tetrahydropapaverine HCl]
remaining activity at 1.25 µM ([1]; Well no.=8290): 99.5% | remaining activity at 3.75 µM ([2]; Well no.=8290): 98%

c1ccc2c(c1)CCCC2C1=NCCN1 (stereo not drawn) [Tetrahydrozoline (hydrochloride)]
remaining activity at 1.25 µM ([1]; Well no.=8099): 96.6% | remaining activity at 3.75 µM ([2]; Well no.=8099): 91.5%

c1ccc2c(c1)CCCC2C1=NCCN1 (stereo not drawn) [Tetrahydrozoline hydrochloride]
remaining activity at 1.25 µM ([1]; Well no.=1239): 103% | remaining activity at 3.75 µM ([2]; Well no.=1239): 103%

CC(C)NP(=O)(NC(C)C)OP(=O)(NC(C)C)NC(C)C [Tetraisopropyl pyrophosphoramide]
remaining activity at 1.25 µM ([1]; Well no.=1473): 103% | remaining activity at 3.75 µM ([2]; Well no.=1473): 100%

Cc1nc(C)c(C)nc1C [Tetramethylpyrazine]
remaining activity at 1.25 µM ([1]; Well no.=4143): 98.6% | remaining activity at 3.75 µM ([2]; Well no.=4143): 97.4%

c1ccc(C2CN3CCSC3=N2)cc1 (stereo not drawn) [Tetramisole hydrochloride]
remaining activity at 1.25 µM ([1]; Well no.=1521): 99.3% | remaining activity at 3.75 µM ([2]; Well no.=1521): 100%

COc1ccc2cc1Oc1ccc(cc1)C[C@H]1c3cc(c(OC)cc3CCN1C)Oc1c(OC)c(OC)cc3c1[C@H](C2)N(C)CC3 [Tetrandrine]
remaining activity at 1.25 µM ([1]; Well no.=3182): 103% | remaining activity at 3.75 µM ([2]; Well no.=3182): 99.4%

CCCCC/C=C\C[C@@H](O)/C=C/C=C\CCC(=O)O [Tetranor-12(R)-HETE]
remaining activity at 1.25 µM ([1]; Well no.=4563): 97% | remaining activity at 3.75 µM ([2]; Well no.=4563): 97.6%

O=C1CCC(N2C(=O)c3ccccc3C2=O)C(=O)N1 (stereo not drawn) [Thalidomide]
remaining activity at 1.25 µM ([1]; Well no.=2261): 98.2% | remaining activity at 3.75 µM ([2]; Well no.=2261): 102%

C/C=C(/C)C(=O)O[C@H]1C(C)=C2[C@H]([C@@H]1OC(=O)CCCCCCC)[C@@](C)(OC(C)=O)C[C@H](OC(=O)CCC)[C@@]1(O)[C@H]2OC(=O)[C@@]1(C)O [Thapsigargin]
remaining activity at 1.25 µM ([1]; Well no.=1470): 98% | remaining activity at 1.25 µM ([1]; Well no.=3184): 107% | remaining activity at 3.75 µM ([2]; Well no.=1470): 95.1% | remaining activity at 3.75 µM ([2]; Well no.=3184): 107%

Source: paper PMC8286840, “Identifying SARS-CoV-2 antiviral compounds by screening for small molecule inhibitors of Nsp3 papain-like protease” (Biochemical Journal, 2021)
